{"source": "patent US10201530B2", "about": "“Treatment of BRCA1-defective cancer or resistant cancers” (City of Hope, priority 2014, dated 2019)", "key": {"A2780": {"tested_on": "A2780", "assay": "Cytotoxicity, A2780 cells", "type": "cell-based, human", "conditions": "Homo sapiens; A2780, cisplatin-sensitive ovarian cells; read-out: IC50, mean ± SEM", "procedure": "(§1) All cell lines were acquired from the American Type Culture Collection (Manassas, Va., USA). Cells were maintained in RPMI 1640 medium (Mediatech) with 10% fetal bovine serum, 2 mM glutamine, and 100 U of penicillin and 100 μg of streptomycin per ml of medium (Sigma) at 37° C. in 5% CO2. To isolate HCC1437+BRCA1 cells, parental HCC1937 cells were transfected with pcDNA3.1 plasmid expressing full-length BRCA1 cDNA. Stable transfectant clones were selected and used for drug sensitivity assays. For stable transfection, cells at 30-40% confluence were incubated overnight with […] of plasmid DNA, using FUGENE® 6 transfectin reagent (Roche Molecular Biochemical, Monza, Italy) according to the manufacturer's instructions. Cells were then selected in puromycin (1 μg/ml) (Invitrogen life Technologies, La Jolla, Calif., USA.) After 20 to 30 days, viable puromycin-resistant colonies from HCC1937 transfections were expanded and screened. The clones that stably expressed […] and retained growth potential were assayed for BRCA1 expression by Western blot analysis. By Western blot analysis, we evaluated the restoration of BRCA1 expression in the puromycin-resistant cDNA/transfectant cells.\n(§2) The MTT cytotoxicity assay was performed by incubating with MTT and monitoring the MTT formazan formed by viable cells with a microplate reader at a wavelength of 560 nm; the survival, ratio was determined using the formula: (Atest−Ablank)/(Acontrol−Ablank)×100%. The cytotoxicity was determined in 96-well plates using the semiautomatic fluorescence-based Digital Imaging Microscopy System (DIMSCAN). DIMSCAN uses digital imaging microscopy to quantify viable cells, which selectively accumulate FDA (fluorescein diacetate; Alfa Aesar, Ward Hill, Mass.). DIMSCAN is capable of measuring cytotoxicity over a 4 log dynamic range by quantifying total fluorescence per well (which is proportional to the number of viable cells) after elimination of the background fluorescence by digital thresholding and eosin Y (Mallinckrodt Baker, Center Valley, Pa.) quenching. Cells were seeded into 96-well plates in 100 μL of complete medium at 2,000 to 5,000 cells per well depending on cell line growth rate. After overnight incubation, test compound was added to each well at various concentrations in 50 μL of culture medium. After incubation with the drugs for 96 hours at 37° C., FDA (final concentration: […]) and eosin Y [final concentration: 0.1% (w/v)] were added to each well and the cells were incubated for an additional 20 minutes at 37° C. Total fluorescence per well was then measured using DIMSCAN, and the results were expressed as the ratio of the fluorescence in treated wells to the fluorescence in untreated wells (survival fraction)."}, "A2780-DDDP": {"tested_on": "A2780-DDDP", "assay": "Cytotoxicity, A2780-DDDP cells", "type": "cell-based, human", "conditions": "Homo sapiens, cisplatin-resistant ovarian cells, read-out: IC50, mean ± SEM", "procedure": "as §1, §2"}, "SKBR3": {"tested_on": "SKBR3", "assay": "Cytotoxicity, SKBR3 cells", "type": "cell-based, human", "conditions": "Homo sapiens, SK-BR-3; SKBR3, ER− PR(−) HER2+", "procedure": "as §1\nThe MTT cytotoxicity assay was performed by incubating with MTT and monitoring the MTT formazan formed by viable cells with a microplate reader at a wavelength of 560 nm; the survival, ratio was determined using the formula: (Atest−Ablank)/(Acontrol−Ablank)×100%. The cytotoxicity was determined in 96-well plates using the semiautomatic fluorescence-based Digital Imaging Microscopy System (DIMSCAN). DIMSCAN uses digital imaging microscopy to quantify viable cells, which selectively accumulate FDA (fluorescein diacetate; Alfa Aesar, Ward Hill, Mass.). DIMSCAN is capable of measuring cytotoxicity over a 4 log dynamic range by quantifying total fluorescence per well (which is proportional to the number of viable cells) after elimination of the background fluorescence by digital thresholding and eosin Y (Mallinckrodt Baker, Center Valley, Pa.) quenching. […]"}, "HCC1937 tumors": {"tested_on": "HCC1937 tumors", "assay": "Orthotopic tumor explant model, HCC1937", "type": "in vivo", "conditions": "HCC1937 tumors in mammary fat pads of NSG mice, daily oral 400 mg/kg, 28 days", "procedure": "Experiments in mice were conducted under a protocol approved by the IACUC of City of Hope. Because HCC1937 and HCC1937+BRCA1 cells from slow-growing tumors, they were implanted using MATRIGEL™ (Becton-Dickinson Biosciences). To establish tumors 4×10^6 cells in 200 μL serum-free medium containing 50% MATRIGEL™ were injected into the mammary fat pads around the inguinal area of a pair of 8 week old female NSG mice. Once the initial tenors reached 13 mm in diameter, they were dissected out minced into 3 mm pieces and implanted into the inguinal area of the mammary fat pads of the experimental mice Tumors were measured over a 28-day period, and for each time point, the student t-test was used to determine the statistical significance between daily gavage with 400 mg/kg COH29 in 30% solutol and corresponding vehicle control. The p value less than 0.05 (2 sides) was considered to indicate statistical significance"}, "PARP1 protein": {"tested_on": "PARP1 protein", "assay": "PARP1 protein level by Western blot", "type": "cell-based, human", "procedure": "For subcellular fractionation, cells were trypsinized and washed with cold PBS solution twice. […] Following centrifugation at 1,000 g for 5 min, the supernatant was collected (i.e., cytoplasmic fraction) and pellets were washed with the same buffer twice. The washed samples were extracted for 40 min on ice with fractionation buffer containing 0.5% NP-40 for nuclear fraction. All the samples were sonicated and clarified by centrifugation at 16,000 g for 15 min. Protein concentrations of all fractions were determined with Bio-Rad Protein Assay (Bio-Rad Laboratories, Hercules, Calif.). Immunoblotting was performed as described previously (21,22). Briefly, equal amounts of boiled protein samples were subjected to SDS-polyacrylamide gel electrophoresis (PAGE) and transferred onto nitrocellulose membranes (Bio-Rad Laboratories). Membranes were blocked for 1 hour in 3% BSA in Tris buffered saline containing 0.05% Tween 20 (TBST) and incubated for 1 hour with primary antibody (1:500 or 1:1000) diluted in TBST containing 1% BSA. After two washes with TBST, membranes were incubated for 1 hour with horseradish peroxidase-conjugated secondary Abs (1:3000 dilution) at room temperature. The immunoblots were visualized on film with the West-Q chemi-luminescence kit (GenDEPOT, Barker, Tex.)."}, "zebrafish embryos": {"tested_on": "zebrafish embryos", "assay": "Zebrafish genotoxicity assay", "type": "in vivo, Danio rerio", "conditions": "wild-type zebrafish embryos, COH29 0-100 μM", "procedure": "Zebrafish (Danio rerio) were obtained from zebrafish Core facility of Taipei Medical University and maintained at 28° C. on a 14 h light/10 h dark cycle. Embryos were incubated at 28° C. and different developmental stages were determined as described (25). Wild-type embryos were treated with different concentrations of HU (0, 5, […], 20, 50 mM) or COH29 (0, 10, 20, 50, 100 μM) at 20 hpf to evaluate the mutagenic effect. Fifteen embryos were treated per well condition. […] Embryos were observed using an Olympus IX70-FLA inverted fluorescence microscope. Images were taken using SPOT digital camera system (Diagnostic Instruments, Sterling Heights, Mich., USA) and assembled with ImageJ software (26)."}, "RR": {"molecular_target": "RR (Homo sapiens, UniProt P31350)", "sequence (P31350 whole entry)": "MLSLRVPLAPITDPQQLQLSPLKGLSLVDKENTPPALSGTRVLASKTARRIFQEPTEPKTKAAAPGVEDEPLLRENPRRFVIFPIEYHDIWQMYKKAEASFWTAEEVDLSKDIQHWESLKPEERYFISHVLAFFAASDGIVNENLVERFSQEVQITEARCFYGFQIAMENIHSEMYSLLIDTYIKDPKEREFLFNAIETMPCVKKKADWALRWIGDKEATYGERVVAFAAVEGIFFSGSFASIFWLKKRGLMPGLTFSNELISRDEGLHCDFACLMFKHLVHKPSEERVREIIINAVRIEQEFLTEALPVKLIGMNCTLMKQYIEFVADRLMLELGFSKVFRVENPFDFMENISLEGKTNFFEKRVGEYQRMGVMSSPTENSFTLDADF", "conditions": "previously reported, ref (6); cited from earlier work"}}, "data": [{"molecule": "O=C(Nc1nc(-c2ccc(O)c(O)c2)c(-c2ccccc2)s1)c1ccc(O)c(O)c1", "note": "[COH29]", "values": [{"measurement": "IC50", "setting": "A2780", "result": "4.67 ± 1.64", "unit": "µM"}, {"measurement": "IC50", "setting": "A2780-DDDP", "result": "6.47 ± 1.41", "unit": "µM"}, {"measurement": "IC50", "setting": "SKBR3", "result": "13.28 ± 0.03", "unit": "µM"}, {"measurement": "growth of tumors compared to vehicle", "setting": "HCC1937 tumors", "result": "significantly (p=0.0007) suppressed"}, {"measurement": "effect on PARP1 protein level", "setting": "PARP1 protein; HCC1937 BRCA1-defective cells, 24 h", "result": "attenuated PARP1 protein"}, {"measurement": "effect on PARP1 protein level", "setting": "PARP1 protein; HCC1937 cells irrespective of BRCA1 status, 4 h treatment", "result": "Little reduction"}, {"measurement": "viability", "setting": "zebrafish embryos", "result": "no developmental defects (FIG. 5C) or decrease in viability"}, {"measurement": "developmental defects", "setting": "zebrafish embryos; HU 0-50 mM", "result": "no developmental defects"}, {"measurement": "effect of RR inhibition on dNTP", "setting": "RR", "result": "causes dNTP depletion in vivo"}]}]}
